According to PubChem BioAssay AID624395 (The Scripps Research Institute Molecular Screening Center, 2012):
Calls of active or inactive are those of the source. How the calls were made is not given here.

Test system: cell-based VP16 transactivation luciferase luminescence
Assay: compounds lowering VP16-driven reporter luminescence – cell-based, counter-screen for NR2E3 agonist project, dose response (AID 624395)

| SMILES | IC50 |
| --- | --- |
| Cc1noc(C)c1S(=O)(=O)Nc1ccc(C(=O)N2CCN(c3ccc(Cl)cc3)CC2)cc1 | 7.09 µM |
| O=[N+]([O-])c1ccc(O)c2ncccc12 | 6.36 µM |
| Cc1ccc(S(=O)(=O)N2[C@@H](c3ccc(Br)cc3)C(C(=O)O)=CC[C@H]2c2ccc(Cl)c(Cl)c2)cc1 | 7.28 µM |
| O=[N+]([O-])c1cc(CN2CCN(c3ccccc3)CC2)c(O)c2ncccc12 | > 39.8 µM (inactive) |
| CCC(C)Nc1nc(-c2ccccn2)nc2ccccc12 (centres undefined) | 3.93 µM |
| Oc1[nH]c2ccc(Br)cc2c1N=NC(=S)N1CCOCC1 | > 13.3 µM (inactive) |
| COc1cnc(-c2ccccn2)nc1N(C)c1ccccc1 | 5.76 µM |
| Cc1ccsc1C(=O)OCC(=O)c1cc(C)n(CC2CCCO2)c1C (centres undefined) | 0.0525 µM |
| CCn1c(=O)cc(SCC(=O)Nc2ccc(C)cn2)c2ccccc21 | 4.63 µM |
| CCC(=O)NC(c1cccs1)c1cc([N+](=O)[O-])c2cccnc2c1O (centres undefined) | 3.89 µM |
| Cc1cnc(NC(=O)C2CC(=O)N(c3cccc(Cl)c3)C2)s1 (centres undefined) | 1.05 µM |
| COc1cccc(N2CCN(c3nc(-c4ccccc4C)cc(=O)[nH]3)CC2)c1 | 4.57 µM |
| CCCCC[C@@H]1C=C(C(=O)O)[C@H](c2ccc(Cl)c(Cl)c2)N1S(=O)(=O)c1ccc(C)cc1 | 8.77 µM |
| CC(C)c1ccc(-c2csc(NC(=O)c3cccs3)c2C(=O)O)cc1 | 12.1 µM (inactive) |
| O=c1cc(N2CCN(c3ccccc3)CC2)[nH]c(=O)n1C1CCCCC1 | > 39.8 µM (inactive) |
| CC(=O)c1c(O)cc(O)c(C(C)=O)c1O | 4.56 µM |
| O=C(O)CC1(CC(=O)Nc2cc(C(F)(F)F)cc(C(F)(F)F)c2)CCCCC1 | 14.1 µM (inactive) |
| Cc1cc(C(=O)Nc2ccc(Cl)cc2)c(C)n1-c1ccccc1 | 0.00684 µM |
| COc1ccc(NC(=O)/C(Cl)=C(/Cl)S(=O)(=O)Cc2ccccc2)cn1 | 5.13 µM |
| Cc1ccnc(NC(=O)C2CCN(S(=O)(=O)c3c(C)c(C)cc(C)c3C)CC2)c1 | 13.2 µM (inactive) |
| Cc1ccc(Cc2cnc(N3C(=N)SC(C)C3=O)s2)cc1 (centres undefined) | 4.37 µM |
| COc1cccc2c1C(=O)c1c(O)c3c(c(O)c1C2=O)CC(O)(C(C)=O)CC3OC1CC(N(C)C)C(O)C(C)O1 (centres undefined) | 3.21 µM |
| CC(=O)c1c(C)[nH]c(C(=O)OCC(=O)c2ccc(Br)cc2)c1C | 3.45 µM |
| O=C(CN1C(=O)C(c2ccc(F)cc2)=NC12CCCC2)Nc1ccc(F)cc1 | 4.48 µM |
| NS(=O)(=O)c1ccc(CCNc2nn3c(-c4cccc(OC(F)(F)F)c4)cnc3s2)cc1 | 4.66 µM |
| Cc1nc2ncnn2c(N2CCN(c3cccc(C(F)(F)F)c3)CC2)c1C | 6.46 µM |

| SMILES | IC50 |
| --- | --- |
| CC(C)(C)C(=O)Nc1ccc(Sc2ccc([N+](=O)[O-])cc2)cc1 | 4.6 µM |
| Cc1nc(NC(=O)c2c(-c3ccccc3Cl)noc2C)sc1C | > 39.8 µM (inactive) |
| CNC(=S)/N=C/NOCc1ccc(Cl)cc1Cl | 5.03 µM |
| COc1ccc2c(c1)/C(=C/c1cnc[nH]1)C(=O)N2 | 12.7 µM (inactive) |
| CC(=O)NC(c1cccs1)c1cc([N+](=O)[O-])c2cccnc2c1O (centres undefined) | 5.77 µM |
| O=C(OC12CC3CC(CC(C3)C1)C2)c1ccc(NCc2cc(O)ccc2O)cc1 | 11.6 µM (inactive) |
| O=C(NCc1cccnc1)/C(=C\c1ccc(-c2ccc(Cl)c(Cl)c2)o1)S(=O)(=O)c1ccccc1 | 7.96 µM |
| COCc1nnc(NC(=O)c2ccc(S(=O)(=O)N(CC(C)C)CC(C)C)cc2)o1 | 6.62 µM |
| Cc1c(Cl)ccc2sc(N3CCN(C(=O)C4=COCCO4)CC3)nc12 | 7 µM |
| COc1ccc(NC(=O)c2sc(=O)n(Cc3ccc(F)c(Cl)c3)c2C)cc1OC | 20.6 µM (inactive) |
| COc1cc(OC)nc(-n2ncc(Br)c(Br)c2=O)n1 | 4.91 µM |
| O=C(Nc1nnc(-c2cccs2)o1)c1cc(-c2ccccc2)nc2ccccc12 | 3.45 µM |
| CC(C)c1ccc(C(c2c(O)c3ccccc3oc2=O)c2c(O)c3ccccc3oc2=O)cc1 | 10.3 µM (inactive) |
| C=CC[n+]1c(-c2ccc(Cl)cc2Cl)csc1Nc1ccc(NC(C)=O)cc1 | 2.75 µM |
| O=C1C=CC2(O[C@H](c3ccccc3)[C@@H](c3ccccc3)O2)[C@H](Sc2ccccc2O)C1 | 4.89 µM |
| O=C1N/C(=C\c2ccc(O)cc2)C(O)=C1C=NCc1ccccc1 | > 39.8 µM (inactive) |
| Cc1ccccc1Cn1nnc(C(=O)Nc2cccc(C)c2C)c1N | 18 µM (inactive) |
| O=c1c(Br)ccc(Br)cc1Br | 4.8 µM |
| CCOC(=O)[C@]12Cc3cc(C)ccc3[C@H]1N(C1CCCCC1)C(=O)c1cc(OC)ccc12 | 4.32 µM |
| CCCCCCCCCCCCN1[C@@H](CC(=O)O)c2cc(C(F)(F)F)ccc2S1(=O)=O | 8.1 µM |
| COc1cccc(C(=O)c2sc(NC(C)C)nc2N)c1 | 5.16 µM |
| Cc1cnc(NC(=O)C2CC(=O)N(c3ccc4c(c3)OCCO4)C2)s1 (centres undefined) | > 39.8 µM (inactive) |
| CC1CCC/C=C/C2CC(O)CC2C(O)/C=C/C(=O)O1 (centres undefined) | 1.28 µM |
| O=C(Nc1ccccc1Cl)/C(Cl)=C(\Cl)S(=O)c1ccccc1 (centres undefined) | 4.1 µM |
| Cc1ccnc(NC(=O)CCCOc2cc(=O)n(C)c3ccccc23)c1 | 8.23 µM |
| CC(C)(C)Nc1nc(-c2ccccn2)nc2ccccc12 | 4.08 µM |

| SMILES | IC50 |
| --- | --- |
| O=C(C1CC1)N1CCc2cc(Br)cc(S(=O)(=O)N3CCN(c4ccccn4)CC3)c21 | > 39.8 µM (inactive) |
| Cc1ccc(S(=O)(=O)N2[C@@H](c3ccc(Cl)cc3)C(C(=O)O)=CC[C@H]2c2ccc(C(C)C)cc2)cc1 | 7.56 µM |
| N#C/C(=N\Nc1ccc(Cl)c(Cl)c1)C(=O)C1CC1 | 1.04 µM |
| Cc1cc(C(=O)CSc2nc3ccccc3[nH]2)c(C)n1CC1CCCO1 (centres undefined) | 7.32 µM |
| CC(C)N1CCc2c(sc(NC(=O)c3ccc([N+](=O)[O-])o3)c2C(N)=O)C1 | 3.05 µM |
| O=C(COC(=O)c1cc([N+](=O)[O-])ccc1N1CCOCC1)Nc1ccc(Cl)cn1 | 31.8 µM (inactive) |
| COCCn1c(C)cc(C(=O)COc2ccc(C)nc2[N+](=O)[O-])c1C | 1.46 µM |
| CN(CC(=O)Nc1ccccc1Cl)C(=O)c1cccc(S(=O)(=O)N2CCN(c3ccc(F)cc3)CC2)c1 | 4.59 µM |
| O=C(Nc1cccc(NC(=O)c2c(F)cccc2F)n1)c1c(F)cccc1F | > 39.8 µM (inactive) |
| Cc1cnc(NC(=O)CCCc2nc3ccccc3s2)s1 | 5.07 µM |
| COc1cccc(NC(=O)CSc2nc3ncc(Br)cc3[nH]2)c1 | > 39.8 µM (inactive) |
| CCOC(=O)N1CCN(C(=O)c2ccc(S(=O)(=O)Nc3ccc(C)cc3)cc2)CC1 | 8.62 µM |
| CCC1(OC(=O)CN)C(=O)OCc2c1cc1n(c2=O)Cc2cc3ccccc3nc2-1 (centres undefined) | 1.31 µM |
| Cc1sc(NC(=O)/C=C/c2ccc3c(c2)OCO3)nc1-c1ccccc1 | 7.11 µM |
| O=c1cc(C(F)(F)F)nc(SC/C=C/c2ccccc2)[nH]1 | 13 µM (inactive) |
| O=C1c2ccccc2C(=O)c2[nH]c(=O)[nH]c21 | 4.74 µM |
| COc1cc2c(O)c3c(c(-c4ccc5c(c4)OCO5)c2cc1OC)C(=O)OC3 | 2.3 µM |
| CCC1(O)C(=O)OCc2c1cc1n(c2=O)Cc2cc3c(N)cccc3nc2-1 (centres undefined) | 2.33 µM |
| CC(C)(C)C(=O)Nc1cc2nn(-c3ccccc3)nc2cc1Cl | 0.00479 µM |
| CN(C)c1ncnc2c1ccn2C1OC(CO)C(O)C1O (centres undefined) | 0.53 µM |
| Cc1cnc(NC(=O)Cc2ccc(Br)cc2)s1 | > 39.9 µM (inactive) |
| O=C1C(=O)c2cccnc2-c2ncccc21 | 13.1 µM (inactive) |
| Cc1ccc(NC(=S)/C(C#N)=C2/Nc3ccccc3S2)cc1 | 2.76 µM |
| COc1ccc(NC(=O)c2sc(=O)n(Cc3cccc(C(F)(F)F)c3)c2C)cc1OC | 35.6 µM (inactive) |
| Cc1cccc(OCCCC(=O)Nc2nc3ccccc3[nH]2)c1 | > 39.8 µM (inactive) |
| CC(C)(C)NCC(=Cc1ccccc1)C(=O)c1ccccc1 | 7.33 µM |

| SMILES | IC50 |
| --- | --- |
| O=[N+]([O-])c1ccc(NC(=S)NCCc2ccc(F)cc2)cc1 | 5.02 µM |
| O=C(O)c1ccc(S(=O)(=O)/N=C2\C=C(Nc3ccccc3F)C(=O)c3ccccc32)cc1 | 4.45 µM |
| O=S(=O)(/C=C/C=C/S(=O)(=O)c1ccccc1)c1ccccc1 | 11.7 µM (inactive) |
| Cc1ccc([C@@H]2CC=C(C(=O)O)[C@H](c3ccc(C(C)(C)C)cc3)N2S(=O)(=O)c2ccc(C)cc2)cc1 | 7.47 µM |
| CC[C@@]1(O)C(=O)OCc2c1cc1n(c2=O)Cc2cc3c(N)cccc3nc2-1 | 1.99 µM |
| Cc1cc(C(=O)COc2cccnc2[N+](=O)[O-])c(C)n1-c1ccccc1 | 0.3 µM |
| CCCc1cc(=O)n2nc(N3CCC(C(=O)N4CCN(c5ccc(OC)cc5)CC4)CC3)sc2n1 | 4.44 µM |
| O=C(NC(=O)N1CCN(c2cccc(Cl)c2)CC1)c1ccc(Cl)cc1 | 4.17 µM |
| N=C1SCC(=O)N1c1ncc(Cc2cccc(Cl)c2)s1 | 4.78 µM |
| O=C1/C(=C\c2ccc([N+](=O)[O-])cc2)CS(=O)(=O)C/C1=C/c1ccc([N+](=O)[O-])cc1 | 4.12 µM |
| CCN(CC)S(=O)(=O)c1ccc(NC(=O)Nc2cccc(C(F)(F)F)c2)cc1 | 7.08 µM |
| CCOP(=O)(CCP(=O)(OCC)OCC)OCC.C[CH2][Sn]([Cl])([Cl])[CH2]C | 10.9 µM (inactive) |
| COc1ccc(CNC(=O)c2c(C)oc3c2C(=O)c2ccccc2C3=O)cc1 | 1.18 µM |
| C=CCn1c(C)cc(C(=O)COc2ccc(C)nc2[N+](=O)[O-])c1C | 0.946 µM |
| O=[N+]([O-])c1cc(C(F)(F)F)cc([N+](=O)[O-])c1NCCNC(=S)Nc1ccc(Cl)c(Cl)c1 | 11.5 µM (inactive) |
| CCCCCCCCn1c(=O)c(C(=O)OC)c(N)c2ccccc21 | 3.64 µM |
| Cc1sc2ncnc(NCC(O)c3ccccc3)c2c1C (centres undefined) | 4.74 µM |
| FC(F)Sc1ccc(NC(=S)N2CCN(c3ccccn3)CC2)cc1 | 4.15 µM |
| c1ccc(CNc2ncnc3sccc23)cc1 | 4.71 µM |
| COc1ccc(CNC(=O)c2cccc3c(-c4ccc(F)c(F)c4)coc23)cc1OC | 4.54 µM |
| CCCCOc1ccc(CONS(=O)(=O)c2ccc(NC(C)=O)cc2)cc1Cl | 4.03 µM |
| COc1cc2c(OC(C)=O)c3c(c(-c4ccc5c(c4)OCO5)c2cc1OC)C(=O)OC3 | 3.48 µM |
| CCc1ccccc1Nc1nn2c(=O)c3ccc(C(=O)NCc4ccccn4)cc3nc2s1 | > 13.3 µM (inactive) |
| Cc1cccc(C)c1OCc1cc(C(=O)N2CCC(c3ccncc3)CC2)no1 | 2.08 µM |
| Cc1ccc(-c2nc(NC(=O)CSc3nnnn3-c3ccccc3)ns2)cc1 | 12.1 µM (inactive) |
| O=C(C1CCC(CNS(=O)(=O)c2cccc3nsnc23)CC1)N1CC=C(c2ccccc2)CC1 (centres undefined) | 6.86 µM |
